This note sets out measurements from PMC3187749, “Discovery of Diverse Small Molecule Chemotypes with Cell-Based PKD1 Inhibitory Activity” (PLoS ONE, 2011).

Common to all, as to type: biochemical
The target of one test is T1, recombinant human PKD1 (Homo sapiens, UniProt Q15139).
T1 construct: His; purchased Millipore (Billerica, MA)
T1 sequence (Q15139 1-912): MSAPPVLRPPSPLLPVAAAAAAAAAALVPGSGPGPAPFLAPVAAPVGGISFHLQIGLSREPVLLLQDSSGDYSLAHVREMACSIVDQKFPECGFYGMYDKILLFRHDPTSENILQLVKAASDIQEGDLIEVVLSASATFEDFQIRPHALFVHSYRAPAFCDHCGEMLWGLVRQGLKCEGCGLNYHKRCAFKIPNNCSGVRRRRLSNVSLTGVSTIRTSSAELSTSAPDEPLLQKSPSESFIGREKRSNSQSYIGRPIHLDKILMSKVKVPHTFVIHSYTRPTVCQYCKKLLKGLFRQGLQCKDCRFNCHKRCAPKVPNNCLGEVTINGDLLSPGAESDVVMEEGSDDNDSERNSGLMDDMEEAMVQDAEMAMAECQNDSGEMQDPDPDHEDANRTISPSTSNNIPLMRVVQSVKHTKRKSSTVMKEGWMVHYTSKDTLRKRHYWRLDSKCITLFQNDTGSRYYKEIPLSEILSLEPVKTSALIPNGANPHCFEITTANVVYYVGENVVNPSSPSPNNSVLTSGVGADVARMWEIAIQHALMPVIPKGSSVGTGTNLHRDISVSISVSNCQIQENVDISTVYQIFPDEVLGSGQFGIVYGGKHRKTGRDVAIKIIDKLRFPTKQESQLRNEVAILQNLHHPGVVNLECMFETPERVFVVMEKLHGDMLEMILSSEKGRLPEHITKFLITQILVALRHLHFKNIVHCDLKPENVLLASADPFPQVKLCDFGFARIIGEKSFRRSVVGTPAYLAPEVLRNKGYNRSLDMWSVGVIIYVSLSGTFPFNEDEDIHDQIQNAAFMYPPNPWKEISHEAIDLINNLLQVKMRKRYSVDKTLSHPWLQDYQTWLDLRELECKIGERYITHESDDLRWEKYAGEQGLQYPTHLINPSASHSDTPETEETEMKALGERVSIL
Put plainly: ATP competition studies (radiometric PKD1 assay, Michaelis-Menten/Lineweaver-Burk). The conditions noted are these: PKD1, ATP 12.5–1000 µM. The method, then: For ATP competition studies, recombinant human PKD1 (1 ng/µL) and Syntide-2 substrate peptide (200 ng/µl) in kinase buffer were incubated with a concentration range of test compound. Kinase reactions were initiated with a concentration range of cold ATP (12.5–1000 µM) supplemented with 1.0 µCi γ-^33P-ATP (Perkin Elmer) and processed as described above. Enzyme inhibition was analyzed and visualized using the Michaelis-Menten and Lineweaver-Burk functions of GraphPad Prism 5.0.

In a further test the target is T2, PKD3 (Homo sapiens, UniProt O94806).
T2 sequence (O94806 1-890): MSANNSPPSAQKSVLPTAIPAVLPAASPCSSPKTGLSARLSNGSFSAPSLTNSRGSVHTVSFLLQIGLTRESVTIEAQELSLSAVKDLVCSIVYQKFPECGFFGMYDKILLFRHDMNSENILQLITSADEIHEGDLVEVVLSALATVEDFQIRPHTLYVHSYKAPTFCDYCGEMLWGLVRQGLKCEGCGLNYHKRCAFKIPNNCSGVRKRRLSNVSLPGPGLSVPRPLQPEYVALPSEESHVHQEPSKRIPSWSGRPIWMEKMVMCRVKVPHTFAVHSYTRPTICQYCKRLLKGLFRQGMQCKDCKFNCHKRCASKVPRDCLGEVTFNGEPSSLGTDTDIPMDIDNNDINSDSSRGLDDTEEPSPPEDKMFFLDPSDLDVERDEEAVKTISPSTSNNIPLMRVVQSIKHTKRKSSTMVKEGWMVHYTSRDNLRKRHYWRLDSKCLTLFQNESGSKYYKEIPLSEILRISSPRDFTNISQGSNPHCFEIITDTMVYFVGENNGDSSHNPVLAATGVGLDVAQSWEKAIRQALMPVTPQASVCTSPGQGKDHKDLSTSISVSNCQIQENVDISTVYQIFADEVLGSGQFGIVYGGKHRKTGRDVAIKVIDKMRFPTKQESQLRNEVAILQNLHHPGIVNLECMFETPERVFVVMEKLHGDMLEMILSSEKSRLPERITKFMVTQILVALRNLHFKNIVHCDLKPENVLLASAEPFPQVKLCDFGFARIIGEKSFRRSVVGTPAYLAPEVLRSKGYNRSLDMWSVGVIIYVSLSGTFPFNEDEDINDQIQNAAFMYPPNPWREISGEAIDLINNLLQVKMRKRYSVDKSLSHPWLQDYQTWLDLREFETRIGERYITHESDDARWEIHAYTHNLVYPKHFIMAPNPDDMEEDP
Briefly: Radiometric PKD3 in vitro kinase assay. Particulars: preliminary in vitro data. As to the method:
Kinase reactions were initiated with the addition of ATP (50 µM ATP, 1.0 µCi γ-^33P-ATP; Perkin Elmer, Boston, MA) and incubated for 20 min at 30°C. Twenty-five µL of the reaction was spotted onto Whatman P81 filter paper (Whatman Inc., Clifton, NJ). Filter papers were then washed three times in 0.5% phosphoric acid, air-dried, and counted using an LS6500 multi-purpose scintillation counter (Beckman Coulter, Fullerton, CA). IC50 determinations were performed using GraphPad Prism software 5.0. Radiometric PKD2 and PKD3 in vitro kinase assays were performed as previously described.

In a further test the test system is AKT. Put plainly: IMAP-based AKT counter screen. Particulars: concentrations up to 50 µM. The source says:
It was also gratifying that, in general, our novel cell active PKD1 inhibitors appeared to be less promiscuous than PKD1 inhibitors having minimal to no cellular PKD1 inhibitory activity (Table 1). For example, CIDs 755673 and 1893668 display additional confirmed activity in six and seven, respectively, PubChem bioassays while CID 2011756 has confirmed activity in only one additional PubChem bioassay. […] In contrast, the remaining chemotypes registered as confirmed actives in 2–43 additional bioassays (Table 1). Additional chemical similarity searching, focusing on our four novel cell-active PKD1 inhibitory chemotypes, using MetaDrug also supports a comparative lack of promiscuity of these compounds.

On to `O=C(Nc1ccc(CN2CCOCC2)cc1)c1ccc(-c2cccc(Cl)c2)o1` [CID 2011756, 5-(3-chlorophenyl)-N-[4-(morpholin-4-ylmethyl)phenyl]furan-2-carboxamide], for which the “Mechanism of Action (with respect to ATP)” value on recombinant human PKD1 was “ATP competitive”. The half-maximal inhibitory concentration (IC50) on PKD3 was 700 ± 200 nM. The AKT kinase inhibition entry with AKT is “no kinase inhibition”.

A word on the IC50: it is the point on the concentration scale where inhibition reaches its midpoint. A lower IC50 goes with inhibition by little substance.
